Assay results as given in PMC10356901, “Mitochondria-derived peptide SHLP2 regulates energy homeostasis through the activation of hypothalamic neurons” (Nature Communications, 2023).
“And” between values parts separate entries of the source, which are not always exact repeats. Equal entries are not always repeated. Where no end group is shown, it is not given here.

How the values were obtained:
[1] = system: POMC neurons expressing hM4Di; test: Patch clamp of hM4Di-expressing POMC neurons on CNO application; format: cell-based, mouse; conditions: for Firing rate / Resting membrane potential (RMP): hM4Di-expressing POMC neurons, CNO
Description: Slices were moved to a submerged-type recording chamber with continuous perfusion of carbogenated recording aCSF heated to 31 °C at a flow rate of approximately 2 mL/min. Tested compounds were added through bath perfusion. To block synaptic inputs, the aCSF contained 100 nM tetrodotoxin (TTX citrate; Tocris, 1069), 100 μM picrotoxin (Sigma-Aldrich, P8390), 100 μM D(−)-2-Amino-5-phosphonopentanoic acid (D-AP-V; Tocris, 0106) and 20 μM CNQX (CNQX-disodium; Tocris, 1045). To block ERK1/2 activation or PI3K signaling pathway, 10 µM of PD98059 (Tocris, 1213) or 1 µM of wortmannin (Tocris, 1232) was added to the bath solution for at least 30 min before any measurement. To test the effect of CNO on POMC neurons expressing the DREDD hM4Di receptor, 5 μM of CNO were applied for 1 to 2 min.
POMC or AgRP-expressing neurons in the ARC were identified with a brief exposure to epifluorescence on an upright microscope (Nikon FN1) using a 40X water-immersion objective and differential interference contrast optics. The pipette solution contains (in mM) 127 K-Methanesulfonate, 5 KCl, 10 HEPES, 0.3 EGTA, 4 Mg-ATP, 0.3 Na-GTP, and is of a pH adjusted to 7.3 with KOH and a 288 mOsm/kg osmolality. The patch pipettes have a resistance of 4-6 MΩ when filled with the pipette solution. […] The basal resting membrane potential and firing rate were recorded for around 3 min after breaking in, and bath perfusion of SHLP2 was applied for 3 to 5 min. Neurons were classified as responsive if there was a change in resting membrane potential of at least 2 mV during the period of drug application. The access resistance (Ra) was monitored throughout the experiment, and cells with a Ra of more than 35 MΩ were excluded from the analysis. Data were acquired at 10 kHz, filtered with a lowpass filter at 5 kHz and analyzed offline with Clampfit 10 (Molecular Devices). The calculated liquid junction potential was +9.55 mV and used to correct all data.

[2] = Dot blot for SHLP2 in CSF after IP injection; format: in vivo, mouse
Description: The immuno-dot blot assay was performed by using the human and mice serum or mouse CSF. 0.2 μm nitrocellulose membranes were activated with ultrapure water (Invitrogen, 10977015), and 2 μL of samples were spotted on a membrane and dried for 30 mins at RT. The membrane was blocked in 5% BSA prepared in 1X Tris Buffered Saline-0.1% Tween 20 (TBST) for 1 h before being overnight incubated with anti-SHLP2 at 4 °C. Membranes were washed 3 times with 1X TBST, then incubated with anti-rabbit IgG (Invitrogen, 31460, 1:3000). The membranes were washed and visualized using the ImageQuant™ LAS 4000 (GE Healthcare Life Science). Blot densitometry was measured using ImageJ software (NIH Image). To quantitate the immuno-dot blot assay results, we prepared controls (total protein level stained by amido black), and subsequently established a calibration figure for each run of the assay.

[3] = target: T1, CXCR7 (Homo sapiens, UniProt P25106); test: PathHunter β-Arrestin recruitment to CXCR7, dose response; format: cell-based; conditions: 10-point curve, Hill / four-parameter logistic
T1 construct: host or cells: CHO-K1
T1 sequence (P25106 whole entry): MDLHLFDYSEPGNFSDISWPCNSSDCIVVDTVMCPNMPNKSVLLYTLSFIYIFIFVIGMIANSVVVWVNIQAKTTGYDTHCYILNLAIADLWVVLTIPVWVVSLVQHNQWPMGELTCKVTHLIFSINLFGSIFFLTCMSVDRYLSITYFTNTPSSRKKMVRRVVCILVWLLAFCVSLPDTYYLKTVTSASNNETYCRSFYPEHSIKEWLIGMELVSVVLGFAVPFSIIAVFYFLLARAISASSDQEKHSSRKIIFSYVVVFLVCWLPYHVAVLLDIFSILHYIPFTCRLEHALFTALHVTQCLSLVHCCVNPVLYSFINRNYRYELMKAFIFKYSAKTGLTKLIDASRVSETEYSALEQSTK
T1 sequence (P32121 whole entry partner): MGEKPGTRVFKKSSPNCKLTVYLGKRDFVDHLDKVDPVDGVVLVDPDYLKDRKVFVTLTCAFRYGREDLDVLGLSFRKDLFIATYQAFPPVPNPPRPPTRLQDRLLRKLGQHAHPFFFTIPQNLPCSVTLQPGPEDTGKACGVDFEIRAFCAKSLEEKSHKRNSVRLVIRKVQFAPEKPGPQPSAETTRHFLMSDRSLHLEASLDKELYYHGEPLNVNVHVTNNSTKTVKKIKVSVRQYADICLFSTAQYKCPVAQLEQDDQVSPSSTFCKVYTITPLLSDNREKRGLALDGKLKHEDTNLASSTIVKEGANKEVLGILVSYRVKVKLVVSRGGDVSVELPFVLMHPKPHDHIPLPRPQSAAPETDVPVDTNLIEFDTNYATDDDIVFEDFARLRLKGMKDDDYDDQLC
Description: The GPCR profiling was performed using PathHunter GPCRmax Arrestin recruitment assay with 168 known GPCRs provided by DiscoverX (Eurofins). This assay utilized Chinese Hamster Ovary CHO-K1 cells expressing GPCR tagged with ProLink (PK) and β-Arrestin2 tagged with a deletion mutant of β-galactosidase as an enzyme acceptor. Upon the binding of the ligand to the GPCR, the recruitment of tagged β-Arrestin2 to the GPCR causes the complementation of a functional β-galactosidase, hydrolyzing a chemiluminescence substrate. The assay was performed with known ligands in agonist and antagonist modes, with data presented as: %Activityagonist=100%×MeanRLUSHLP2−MeanRLU(vehiclecontrol)/MeanMAXRLUcontrolligand−MeanRLU(vehiclecontrol) and %Activityantagonist=100%×1−MeanRLUSHLP2−MeanRLU(vehiclecontrol)/MeanMAXRLUcontrolligand−MeanRLU(vehiclecontrol)
The dose response (EC50) was built using a 10-point curve and fit to a Hill Equation.

[4] = cited from earlier work
Source text: One of the first MDPs discovered is Humanin, a 24-amino-acid peptide encoded by the mitochondrial 16S ribosomal RNA (rRNA) gene. It was originally identified in 2001 during a screening for neuroprotective factors against Alzheimer’s disease[6],[7]. […] Another MDP called Mito chondrial Open Reading Frame of the 12S rRNA-c (MOTS-c) is encoded by the mitochondrial 12S rRNA gene[9]. MOTS-c is a mitochondria-originated metabolic hormone which ... || In addition to humanin and MOTS-c, a recent study has identified an additional six small humanin-like peptides (SHLP1 to 6) encoded by the 16S rRNA gene of the mtDNA genome. […] However, the mechanism by which SHLP2 affec ...

[5] = system: CXCR7; test: Nanoluc-complementation (NanoBiT) β-Arrestin2 recruitment to CXCR7; format: cell-based, human; conditions: HEK293T, n = 4 each group
Description: The recruitment assay was performed based on Nano-luciferase[49]. The vectors (50 ng; gift of Prof. Jong-Ik Hwang, Korea University) encoding human CXCR7, CXCR4, and β-Arrestin2 tagged with SmBiT and LgBiT under Ubiquitin C promoter[49] were transfected into HEK293T cells in a 96-well clear bottom culture plate using Lipofectamine 2000 according to the manufacturer’s protocol. Cells were washed three times with an assay buffer containing (in mM) 140 NaCl, 2.5 KCl, 10 Glucose, 5 HEPES, 2 CaCl2, and 2 MgSO4, pH 7.4 after 24 h. Cells were then incubated with 5 µM Coelenterazine-h (Promega, S201) in the assay buffer for 30 min in the dark, and luminescence was measured at 35 °C in the Victor Nivo Multimode Plate reader (PerkinElmer). The background luminescence was measured for at least 10 min before the addition of ligands, and signals were monitored for at least 60 min after the application of SHLP2 or recombinant mouse CXCL12 (R&D systems, 460-SD-010/CF). The specificity of SHLP2 β-Arrestin2 recruitment through CXCR7 was also confirmed through the assay with CXCR4. Luminescent signals were collected through a 700 nm-IR filter and data were shown as light counts per each cycle of measurement.

[6] = target: CXCR7 tagged with ProLink (PathHunter CHO-K1 cell line) (UniProt P25106)
Chain of CXCR7 tagged with ProLink (PathHunter CHO-K1 cell line) (P25106 whole entry): as the sequence (P25106 whole entry) above

[7] = system: adipocytes; conditions: in vitro; cited from earlier work
Source text: In addition to humanin and MOTS-c, a recent study has identified an additional six small humanin-like peptides (SHLP1 to 6) encoded by the 16S rRNA gene of the mtDNA genome. […] However, the mechanism by which SHLP2 affec ...

[8] = Angiotensin II-induced water consumption test (Supplementary Fig. 4a); format: in vivo, mouse; conditions: After (angiotensin II); individual animals
Description: For intracerebroventricular (ICV) cannulation, mice were anesthetized by intraperitoneal injection (IP) of Zoletil (titelamine/zolazepam 30 mg/kg) and Rompun (xylazine 10 mg/kg), then placed onto a stereotaxic apparatus. After setting the ventricular coordinates, a permanent 26-gauge stainless steel cannula (Plastic one, Inc.) was implanted in the third ventricle (1.8 mm caudal to bregma, and 5.0 mm ventral to the sagittal sinus according to the Paxinos and Franklin’s atlas) and secured to the skull surface using a dental acrylic (Vertex). Mice were individually housed and allowed to recover for at least 1 week. The angiotensin II-induced water consumption test was performed to confirm the position of the ICV cannulation. […] Mice with no angiotensin II-induced thirst behavior were excluded from the experiments.

C[N+]1([O-])CCN(C2=Nc3cc(Cl)ccc3Nc3ccccc32)CC1 [CNO, Clozapine-N-oxide]
effect on POMC neurons expressing hM4Di ([1]; 5 μM CNO, 1 to 2 min, n = 6 from 2 animals): induced hyperpolarization of POMC neurons expressing hM4Di
resting membrane potential and firing rate of POMC neurons expressing hM4Di ([1]; 5 μM CNO, n = 6 from 2 animals): decreases in the resting membrane potentials (h) and firing rates (i)
Firing rate ([1]; replicate 1 of 6): 0.3384
Resting membrane potential (RMP) ([1]; replicate 1 of 6): -60.0566
Firing rate ([1]; replicate 2 of 6): 0
Resting membrane potential (RMP) ([1]; replicate 2 of 6): -63.8078
Firing rate ([1]; replicate 3 of 6): 0.1759
Resting membrane potential (RMP) ([1]; replicate 3 of 6): -77.9333
Firing rate ([1]; replicate 4 of 6): 0.2189
Resting membrane potential (RMP) ([1]; replicate 4 of 6): -57.1355
Firing rate ([1]; replicate 5 of 6): 0.1654
Resting membrane potential (RMP) ([1]; replicate 5 of 6): -59.3185
Firing rate ([1]; replicate 6 of 6): 0.2879
Resting membrane potential (RMP) ([1]; replicate 6 of 6): -55.5068

MGVKFFTLSTRFFPSVQRAVPLWTNS [SHLP2, Small humanin-like peptide 2]
SHLP2 in CSF, relative dot blot densitometry ([2]; IP injection, individual animals (n = 3)): 3.163 and 4.493 and 3.525
SHLP2 detection in CSF ([2]; systemic (IP) injection): highly detected in the CSF
EC50 [3]: 0.97 µM

Mito chondrial Open Reading Frame of the 12S rRNA-c (MRWQEMGYIFYPRKLR; UniProt A0A0C5B5G6 1-16, looked up) [MOTS-c, mitochondrial-derived peptide encoded by the mitochondrial 12S rRNA gene]
lifespan [4]: promote lifespan

Small humanin-like peptide 1 [SHLP1]
CXCR7 activation (β-Arrestin2 recruitment) by SHLP1 to 6 [5]: but not by SHLP1, 3, 4, 5, or 6

Small humanin-like peptide 2 (SHLP2), biotinylated
PathHunter β-Arrestin recruitment to CXCR7 (screen of 168 GPCRs, agonist mode): relative agonistic activity of SHLP2 as percent of the known ligand SDF1α/CXCL12 (% of the known ligand SDF1α/CXCL12) [6]: 70
PathHunter β-Arrestin recruitment to CXCR7, dose response to SHLP2 (10-point curve): EC50 [6]: 0.97 µM

Small humanin-like peptide 3 [SHLP3]
CXCR7 activation (β-Arrestin2 recruitment) by SHLP1 to 6 [5]: but not by SHLP1, 3, 4, 5, or 6
cellular differentiation and insulin sensitivity in adipocytes [7]: enhance cellular differentiation and insulin sensitivity in adipocytes in vitro

Small humanin-like peptide 4 [SHLP4]
CXCR7 activation (β-Arrestin2 recruitment) by SHLP1 to 6 [5]: but not by SHLP1, 3, 4, 5, or 6

Small humanin-like peptide 5 [SHLP5]
CXCR7 activation (β-Arrestin2 recruitment) by SHLP1 to 6 [5]: but not by SHLP1, 3, 4, 5, or 6

Small humanin-like peptide 6 [SHLP6]
CXCR7 activation (β-Arrestin2 recruitment) by SHLP1 to 6 [5]: but not by SHLP1, 3, 4, 5, or 6

angiotensin II (DRVYIHPF; Angiotensin-2; UniProt P01019 25-32, looked up) [used in the water consumption test to confirm ICV cannula position]
Fig. S4a water intake [8]: 0.37 g and 0.63 g and 0.3 g and 0.21 g

humanin: 24-amino-acid peptide encoded by the mitochondrial 16S ribosomal RNA gene (MAPRGFSCLLLLTSEIDLPVKRRA; UniProt Q8IVG9 1-24, looked up)
lifespan [4]: promote lifespan
